Laboratory results as given in patent US8859572B2, “Sulfone substituted 2,3-dihydroimidazo [1,2-C] quinazoline derivatives useful for treating hyper-proliferative disorders and diseases with angiogenesis” (Bayer Intellectual Property GmbH, priority 2008, dated 2014).
pIC50: −log10 of the molar value.

Each compound was assayed against T1, PI3Kβ (recombinant truncated form (ΔN1-108) of the human p110β subunit of PI3K) (Homo sapiens, UniProt P42338) (assay: Solid-phase lipid kinase assay of PI3Kβ). Conditions: 7.5 ng protein/well, final 10 μM ATP, 2 h at rt.
T1 construct: His6 (N); made in house; host or cells: Spodoptera frugiperda Sf9 insect cells
T1 sequence (P42338 109-1070): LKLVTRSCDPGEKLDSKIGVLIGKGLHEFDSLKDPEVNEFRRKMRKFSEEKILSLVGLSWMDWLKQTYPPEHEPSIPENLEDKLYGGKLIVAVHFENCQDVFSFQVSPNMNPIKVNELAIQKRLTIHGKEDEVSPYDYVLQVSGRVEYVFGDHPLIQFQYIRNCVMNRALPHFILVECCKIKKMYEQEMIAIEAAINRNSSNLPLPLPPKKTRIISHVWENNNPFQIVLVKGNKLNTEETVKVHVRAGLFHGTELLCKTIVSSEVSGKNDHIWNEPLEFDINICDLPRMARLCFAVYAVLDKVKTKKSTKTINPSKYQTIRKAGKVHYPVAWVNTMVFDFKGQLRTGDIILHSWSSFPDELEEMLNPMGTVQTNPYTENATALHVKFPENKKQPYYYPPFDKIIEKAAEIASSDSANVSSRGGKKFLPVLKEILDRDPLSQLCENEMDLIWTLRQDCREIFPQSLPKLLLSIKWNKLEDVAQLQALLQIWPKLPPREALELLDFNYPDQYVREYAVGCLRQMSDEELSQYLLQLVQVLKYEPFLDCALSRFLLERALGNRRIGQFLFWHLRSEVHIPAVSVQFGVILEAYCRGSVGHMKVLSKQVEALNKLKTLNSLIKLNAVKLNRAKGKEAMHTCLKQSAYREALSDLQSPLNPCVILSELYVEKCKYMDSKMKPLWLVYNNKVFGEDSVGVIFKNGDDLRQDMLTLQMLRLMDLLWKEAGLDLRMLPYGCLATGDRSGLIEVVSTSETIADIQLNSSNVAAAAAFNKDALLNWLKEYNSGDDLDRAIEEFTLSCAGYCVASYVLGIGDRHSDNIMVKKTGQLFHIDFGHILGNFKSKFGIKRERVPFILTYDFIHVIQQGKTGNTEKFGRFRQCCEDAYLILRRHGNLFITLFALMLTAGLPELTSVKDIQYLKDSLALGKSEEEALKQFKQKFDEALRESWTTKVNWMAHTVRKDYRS
Type: biochemical
Protocol: To assess inhibition of PI3Kα by compounds, the Maxisorp™ plates were coated with 50 μL/well of a solution containing 50 μg/ml PtdIns and 50 μg/ml PtdSer dissolved in chloroform:ethanol (3:7). The plates were subsequently air-dried by incubation for at least 2 h in a fume hood. The reaction was set up by mixing 25 μL/well of assay buffer 2×(100 mM MOPSO/NaOH, 0.2 M NaCl, pH 7.0, 8 mM MgCl2, 2 mg/mL BSA (fatty acid-free)), and 7.5 ng/well PI3Kα in the lipid pre-coated plate. Test compounds at different concentrations (0.0, 0.003, 0.01 0.03, 0.1, 0.3, 1.0, 3.0 and 10 μM) were added in 2% DMSO. The reaction was initiated by adding 20 μL/well of ATP mix (final 10 μM ATP; 0.05 μCi/well [γ^33P]ATP). After incubation at rt for 2 h, the reaction was terminated by adding 50 μl/well stop solution (50 mM EDTA, pH 8.0). The plate was then washed twice with Tris-buffered saline (TBS, pH 7.4). MicroScint PS™ (PACKARD) scintillation mix was added at 100 μL/well, and radioactivity was counted using a TopCount™ (PACKARD) scintillation counter.
The inhibition percent at each concentration of compound was calculated, and IC50 values were determined from the inhibition of curve.
A recombinant truncated form (ΔN1-108) of the human p110β subunit of PI3K with an N-terminal His6-Tag was expressed in S. frugiperda 9 insect cells. Recombinant human PI3Kγ (full length human PI3K p110γ fused with a His6-tag at the C-terminus expressed in S. frugiperda 9 insect cells) was obtained from ALEXIS BIOCHEMICALS (#201-055-0010; San Diego, Calif.).
Kinase assays using recombinant truncated p110β or the full length p110γ were performed in a similar manner as described in the determination of IC50 values of compounds in the kinase assay of PI3Kα except that these isoforms were assayed using 7.5 ng and 25.0 ng of protein/well, respectively.

`COc1c(OCCCS(=O)(=O)N2CCOCC2)ccc2c1N=C(NC(=O)c1cnc(N)nc1)N1CCN=C21` [Example 23, 2-amino-N-{7-methoxy-8-[3-(morpholin-4-ylsulfonyl)propoxy]-2,3-dihydroimidazo[1,2-c]quinazolin-5-yl}pyrimidine-5-carboxamide] and `COc1c(OCCCS(=O)(=O)N2CCOCC2)ccc2c1N=C(NC(=O)c1ccc(N)nc1)N1CCN=C21` [Example 22, 6-amino-N-{7-methoxy-8-[3-(morpholin-4-ylsulfonyl)propoxy]-2,3-dihydroimidazo[1,2-c]quinazolin-5-yl}nicotinamide] cannot be ordered by pIC50: > 7.00 for the first, > 7.00 for the second.

`COc1c(OCCCN2CCS(=O)(=O)CC2)ccc2c1N=C(NC(=O)c1cnc(N)nc1)N1CCN=C21` [Example 21, 2-amino-N-{8-[3-(1,1-dioxidothiomorpholin-4-yl)propoxy]-7-methoxy-2,3-dihydroimidazo[1,2-c]quinazolin-5-yl}pyrimidine-5-carboxamide] and `COc1c(OCCCN2CCS(=O)(=O)CC2)ccc2c1N=C(NC(=O)c1cccnc1)N1CCN=C21` [Example 4, N-{8-[3-(1,1-dioxidothiomorpholin-4-yl)propoxy]-7-methoxy-2,3-dihydroimidazo[1,2-c]quinazolin-5-yl}nicotinamide] cannot be ordered by pIC50: > 7.00 for the first, > 7.00 for the second.

`CN(C)S(=O)(=O)CCCOc1cccc2c1N=C(NC(=O)c1cccnc1)N1CCN=C21` [Example 11, N-(7-{3-[(dimethylamino)sulfonyl]propoxy}-2,3-dihydroimidazo[1,2-c]quinazolin-5-yl)nicotinamide] and `COc1c(OCCCS(=O)(=O)N(C)C)ccc2c1N=C(NC(=O)c1cccnc1)N1CCN=C21` [Example 5, N-(8-{3-[(dimethylamino)sulfonyl]propoxy}-7-methoxy-2,3-dihydroimidazo[1,2-c]quinazolin-5-yl)nicotinamide] cannot be ordered by pIC50: > 7.00 for the first, > 7.00 for the second.

`O=C(NC1=Nc2c(OCCCS(=O)(=O)N3CCOCC3)cccc2C2=NCCN12)c1cccnc1` [Example 7, N-{7-[3-(morpholin-4-ylsulfonyl)propoxy]-2,3-dihydroimidazo[1,2-c]quinazolin-5-yl}nicotinamide] and `CN1CCN(S(=O)(=O)CCCOc2cccc3c2N=C(NC(=O)c2cccnc2)N2CCN=C32)CC1` [Example 8, N-(7-{3-[(4-methylpiperazin-1-yl)sulfonyl]propoxy}-2,3-dihydroimidazo[1,2-c]quinazolin-5-yl)nicotinamide] fall in the same range of pIC50: 5.52 to 7.00 for the first, 5.52 to 7.00 for the second.

First: CS(=O)(=O)c1ccc(COc2ccc3c(c2)N=C(NC(=O)c2cccnc2)N2CCN=C32)cc1 [Example 26, N-(8-{[4-(methylsulfonyl)benzyl]oxy}-2,3-dihydroimidazo[1,2-c]quinazolin-5-yl)nicotinamide]
Second: CS(=O)(=O)c1ccc(COc2cccc3c2N=C(NC(=O)c2cccnc2)N2CCN=C32)cc1 [Example 10, N-(7-{[4-(methylsulfonyl)benzyl]oxy}-2,3-dihydroimidazo[1,2-c]quinazolin-5-yl)nicotinamide]
The pIC50 of the first is lower: 5.52 to 7.00 for the first, > 7.00 for the second.

`CN1CCN(S(=O)(=O)CCCOc2c(OCCCN3CCOCC3)ccc3c2N=C(NC(=O)c2cccnc2)N2CCN=C32)CC1` [Example 13, N-[7-{3-[(4-methylpiperazin-1-yl)sulfonyl]propoxy}-8-(3-morpholin-4-ylpropoxy)-2,3-dihydroimidazo[1,2-c]quinazolin-5-yl]nicotinamide] and `CN(C)S(=O)(=O)CCCOc1c(OCCCN2CCOCC2)ccc2c1N=C(NC(=O)c1cccnc1)N1CCN=C21` [Example 15, N-[7-{3-[(dimethylamino)sulfonyl]propoxy}-8-(3-morpholin-4-ylpropoxy)-2,3-dihydroimidazo[1,2-c]quinazolin-5-yl]nicotinamide] cannot be ordered by pIC50: > 7.00 for the first, > 7.00 for the second.

Compared with `COc1c(OCCCS(=O)(=O)N2CCN(C)CC2)ccc2c1N=C(NC(=O)c1cccnc1)N1CCN=C21` [Example 1, N-(7-methoxy-8-{3-[(4-methylpiperazin-1-yl)sulfonyl]propoxy}-2,3-dihydroimidazo[1,2-c]quinazolin-5-yl)nicotinamide], `CN1CCN(S(=O)(=O)CCCOc2ccc3c(c2)N=C(NC(=O)c2cccnc2)N2CCN=C32)CC1` [Example 25, N-(8-{3-[(4-methylpiperazin-1-yl)sulfonyl]propoxy}-2,3-dihydroimidazo[1,2-c]quinazolin-5-yl)nicotinamide] is lower in pIC50: > 7.00 for the first, 5.52 to 7.00 for the second.

`COc1c(OCCOCCNS(=O)(=O)c2ccccc2)ccc2c1N=C(NC(=O)c1cccnc1)N1CCN=C21` [Example 33, N-[7-methoxy-8-(2-{2-[(phenylsulfonyl)amino]ethoxy}ethoxy)-2,3-dihydroimidazo[1,2-c]quinazolin-5-yl]nicotinamide] and `COc1c(OCCOCCNS(=O)(=O)c2ccc(C)cc2)ccc2c1N=C(NC(=O)c1cccnc1)N1CCN=C21` [Example 34, N-{7-methoxy-8-[2-(2-{[(4-methylphenyl)sulfonyl]amino}ethoxy)ethoxy]-2,3-dihydroimidazo[1,2-c]quinazolin-5-yl}nicotinamide] cannot be ordered by pIC50: > 7.00 for the first, > 7.00 for the second.

`CCN(CC)S(=O)(=O)CCCOc1ccc2c(c1OC)N=C(NC(=O)c1cccnc1)N1CCN=C21` [Example 6, N-(8-{3-[(diethylamino)sulfonyl]propoxy}-7-methoxy-2,3-dihydroimidazo[1,2-c]quinazolin-5-yl)nicotinamide] and `CCS(=O)(=O)NCCCOc1ccc2c(c1OC)N=C(NC(=O)c1cccnc1)N1CCN=C21` [Example 35, N-(8-[3-[(ethylsulfonyl)amino]propoxy]-7-methoxy-2,3-dihydroimidazo[1,2-c]quinazolin-5-yl)nicotinamide] cannot be ordered by pIC50: > 7.00 for the first, > 7.00 for the second.

`O=C(NC1=Nc2cc(OCCCS(=O)(=O)N3CCOCC3)ccc2C2=NCCN12)c1cncnc1` [Example 28, N-{8-[3-(morpholin-4-ylsulfonyl)propoxy]-2,3-dihydroimidazo[1,2-c]quinazolin-5-yl}pyrimidine-5-carboxamide] and `O=C(NC1=Nc2cc(OCCCS(=O)(=O)N3CCOCC3)ccc2C2=NCCN12)c1cccnc1` [Example 24, N-{8-[3-(morpholin-4-ylsulfonyl)propoxy]-2,3-dihydroimidazo[1,2-c]quinazolin-5-yl}nicotinamide] fall in the same range of pIC50: 5.52 to 7.00 for the first, 5.52 to 7.00 for the second.

Compared with `Nc1ncc(C(=O)NC2=Nc3cc(OCCCS(=O)(=O)N4CCOCC4)ccc3C3=NCCN23)cn1` [Example 29, 2-amino-N-{8-[3-(morpholin-4-ylsulfonyl)propoxy]-2,3-dihydroimidazo[1,2-c]quinazolin-5-yl}pyrimidine-5-carboxamide], `Nc1ccc(C(=O)NC2=Nc3cc(OCCCS(=O)(=O)N4CCOCC4)ccc3C3=NCCN23)cn1` [Example 30, 6-amino-N-{8-[3-(morpholin-4-ylsulfonyl)propoxy]-2,3-dihydroimidazo[1,2-c]quinazolin-5-yl}nicotinamide] is lower in pIC50: > 7.00 for the first, 5.52 to 7.00 for the second. The first is the more potent here.

`CS(=O)(=O)c1ccc(COc2c(OCCCN3CCOCC3)ccc3c2N=C(NC(=O)c2cccnc2)N2CCN=C32)cc1` [Example 36, N-[7-{[4-(methylsulfonyl)benzyl]oxy}-8-(3-morpholin-4-ylpropoxy)-2,3-dihydroimidazo[1,2-c]quinazolin-5-yl]nicotinamide] and `CS(=O)(=O)Oc1c(OCCCN2CCOCC2)ccc2c1N=C(NC(=O)c1cccnc1)N1CCN=C21` [Example 37, 8-(3-morpholin-4-ylpropoxy)-5-[(pyridin-3-ylcarbonyl)amino]-2,3-dihydroimidazo[1,2-c]quinazolin-7-yl methanesulfonate] cannot be ordered by pIC50: > 7.00 for the first, > 7.00 for the second.

First: COc1c(OCc2ccc(S(C)(=O)=O)cc2)ccc2c1N=C(NC(=O)c1cccnc1)N1CCN=C21 [Example 2, N-(7-methoxy-8-{[4-(methylsulfonyl)benzyl]oxy}-2,3-dihydroimidazo[1,2-c]quinazolin-5-yl)nicotinamide]
Second: COc1c(OCc2ccc(S(C)(=O)=O)cc2)ccc2c1N=C(NC(=O)c1ccc(N)nc1)N1CCN=C21 [Example 20, 6-amino-N-(7-methoxy-8-{[4-(methylsulfonyl)benzyl]oxy}-2,3-dihydroimidazo[1,2-c]quinazolin-5-yl)nicotinamide]
The pIC50 of the first is lower: 5.52 to 7.00 for the first, > 7.00 for the second.

`COc1c(OCCCS(=O)(=O)N(C)C)ccc2c1N=C(NC(=O)c1ccc(N)nc1)N1CCN=C21` [Example 18, 6-amino-N-(8-{3-[(dimethylamino)sulfonyl]propoxy}-7-methoxy-2,3-dihydroimidazo[1,2-c]quinazolin-5-yl)nicotinamide] and `COc1c(OCCCS(=O)(=O)N(C)C)ccc2c1N=C(NC(=O)c1cnc(N)nc1)N1CCN=C21` [Example 17, 2-amino-N-(8-{3-[(dimethylamino)sulfonyl]propoxy}-7-methoxy-2,3-dihydroimidazo[1,2-c]quinazolin-5-yl)pyrimidine-5-carboxamide] cannot be ordered by pIC50: > 7.00 for the first, > 7.00 for the second.

`CCCS(=O)(=O)NCCOCCOc1ccc2c(c1OC)N=C(NC(=O)c1cccnc1)N1CCN=C21` [Example 32] was tested, and the pIC50 was > 7.00.
